According to US11944111B2, “Stabilizing sorbic acid in beverage syrup” (PepsiCo, Inc., priority 2015, dated 2024):
Like-named read-outs stand apart in the source and are kept apart here.

What was measured:
[1] = cited from earlier work
[2] = UV-vis 263 nm, saturated solution
Description: According to the Lambert-Beer Law, the concentration of sorbic acid is proportional to absorption intensity (Abs(Intesity)=K [Sorbic Acid]).

[3] = aqueous solution, pH between 2.5 and 4, about 20 C

| Structure (SMILES) | solubility of sorbic acid in high acid syrup ([1]; 60% brix syrup) | sorbate concentration at which sorbic acid precipitation begins [1, 3] | sorbate concentration at which the tendency to precipitate is clear [1, 3] | Abs (pH 2.5) ([2]; aged at 40 F. 0 day) | Abs (pH 2.5) ([2]; aged at 40 F. 7 days) | Abs (pH 3.0) ([2]; aged at 40 F. 7 days) | Stability (crystals) (aged at 40 F. 0 day) | Stability (crystals) (aged at 40 F. 7 days) |
| --- | --- | --- | --- | --- | --- | --- | --- | --- |
| C/C=C/C=C/C(=O)O [sorbic acid] | 0.08% | about 500 ppm | 1300 ppm | – | – | – | – | – |
| C/C=C/C=C/C(=O)[O-].[K+] [Potassium Sorbate] | – | – | – | 1.644 | 1.357 | 1.24 | no crystals | lot of crystals |
